Where two headings read alike, the source gives them in different places.
Legend:
Format in all cases: biochemical
human PLK4 = human PLK4 (Homo sapiens (Human), UniProt O00444); assay: PLK4 inhibition assay (indirect ELISA)
Aurora A = Aurora A (Homo sapiens (Human), UniProt O14965); assay: Aurora A inhibition assay (Z-Lyte)
Aurora B = Aurora B (Homo sapiens (Human), UniProt Q96GD4); assay: Aurora B inhibition assay (Z-Lyte)
FLT3 = FLT3 (Homo sapiens (Human), UniProt P36888); assay: Kinase selectivity assay (CEREP HTRF panel)
KDR kinase (VEGFR2) = KDR kinase (VEGFR2) (Homo sapiens (Human), UniProt P35968); assay: Kinase selectivity assay (CEREP HTRF panel)
KDR kinase (VEGFR2), sequence (P35968 20-1356): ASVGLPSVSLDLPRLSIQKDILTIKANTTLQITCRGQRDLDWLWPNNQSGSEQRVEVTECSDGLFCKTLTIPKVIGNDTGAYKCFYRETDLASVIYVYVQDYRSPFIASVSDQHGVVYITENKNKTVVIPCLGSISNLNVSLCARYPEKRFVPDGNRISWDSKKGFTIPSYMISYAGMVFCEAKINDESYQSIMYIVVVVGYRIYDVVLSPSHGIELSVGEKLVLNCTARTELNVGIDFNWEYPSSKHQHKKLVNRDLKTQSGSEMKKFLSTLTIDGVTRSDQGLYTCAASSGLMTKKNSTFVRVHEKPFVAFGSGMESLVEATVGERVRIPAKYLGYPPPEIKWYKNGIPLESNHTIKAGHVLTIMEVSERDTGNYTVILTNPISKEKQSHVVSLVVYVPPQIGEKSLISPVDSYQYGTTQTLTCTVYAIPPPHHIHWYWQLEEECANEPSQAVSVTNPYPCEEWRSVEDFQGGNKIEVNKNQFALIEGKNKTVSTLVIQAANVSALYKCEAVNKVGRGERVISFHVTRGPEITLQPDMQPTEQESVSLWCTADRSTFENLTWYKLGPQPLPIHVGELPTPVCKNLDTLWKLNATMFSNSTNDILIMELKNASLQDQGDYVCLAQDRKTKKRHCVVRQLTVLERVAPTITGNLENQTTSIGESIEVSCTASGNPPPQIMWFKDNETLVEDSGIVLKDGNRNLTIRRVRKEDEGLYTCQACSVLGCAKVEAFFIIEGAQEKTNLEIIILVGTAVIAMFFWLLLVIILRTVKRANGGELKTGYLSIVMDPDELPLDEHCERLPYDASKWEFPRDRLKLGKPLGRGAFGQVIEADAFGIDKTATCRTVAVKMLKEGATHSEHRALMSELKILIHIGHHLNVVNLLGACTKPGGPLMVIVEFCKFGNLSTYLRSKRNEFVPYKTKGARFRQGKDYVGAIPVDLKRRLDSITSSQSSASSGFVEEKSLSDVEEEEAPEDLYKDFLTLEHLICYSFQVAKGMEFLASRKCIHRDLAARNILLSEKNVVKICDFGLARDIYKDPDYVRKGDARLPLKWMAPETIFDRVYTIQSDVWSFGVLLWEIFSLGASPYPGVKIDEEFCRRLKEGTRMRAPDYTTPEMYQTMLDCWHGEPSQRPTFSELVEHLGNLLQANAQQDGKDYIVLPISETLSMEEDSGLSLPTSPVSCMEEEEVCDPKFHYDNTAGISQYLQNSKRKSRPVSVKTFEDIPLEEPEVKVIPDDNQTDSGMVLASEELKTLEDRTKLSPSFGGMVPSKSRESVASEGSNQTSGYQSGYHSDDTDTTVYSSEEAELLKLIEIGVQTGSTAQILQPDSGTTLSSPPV

human PLK4, sequence (O00444 1-391): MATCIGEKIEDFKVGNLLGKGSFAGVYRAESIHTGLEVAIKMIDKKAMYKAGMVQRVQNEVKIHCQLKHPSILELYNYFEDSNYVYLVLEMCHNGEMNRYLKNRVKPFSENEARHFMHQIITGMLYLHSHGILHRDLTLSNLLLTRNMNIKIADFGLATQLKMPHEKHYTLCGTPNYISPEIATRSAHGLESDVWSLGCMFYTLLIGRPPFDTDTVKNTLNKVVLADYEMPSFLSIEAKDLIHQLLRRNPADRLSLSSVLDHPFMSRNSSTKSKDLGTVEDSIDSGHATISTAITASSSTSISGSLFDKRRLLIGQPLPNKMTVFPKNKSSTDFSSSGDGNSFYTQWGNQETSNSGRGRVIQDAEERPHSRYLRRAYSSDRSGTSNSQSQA
Aurora B, sequence (Q96GD4 whole entry): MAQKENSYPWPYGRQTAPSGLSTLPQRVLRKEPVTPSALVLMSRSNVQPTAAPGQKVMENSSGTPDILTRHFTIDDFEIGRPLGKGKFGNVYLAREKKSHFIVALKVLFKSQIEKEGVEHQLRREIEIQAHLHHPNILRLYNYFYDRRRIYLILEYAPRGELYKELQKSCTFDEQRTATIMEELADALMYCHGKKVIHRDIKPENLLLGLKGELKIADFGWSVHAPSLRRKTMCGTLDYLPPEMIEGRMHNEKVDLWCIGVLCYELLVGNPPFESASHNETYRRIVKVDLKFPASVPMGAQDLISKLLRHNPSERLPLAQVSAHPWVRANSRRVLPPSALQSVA
Aurora A, sequence (O14965 whole entry): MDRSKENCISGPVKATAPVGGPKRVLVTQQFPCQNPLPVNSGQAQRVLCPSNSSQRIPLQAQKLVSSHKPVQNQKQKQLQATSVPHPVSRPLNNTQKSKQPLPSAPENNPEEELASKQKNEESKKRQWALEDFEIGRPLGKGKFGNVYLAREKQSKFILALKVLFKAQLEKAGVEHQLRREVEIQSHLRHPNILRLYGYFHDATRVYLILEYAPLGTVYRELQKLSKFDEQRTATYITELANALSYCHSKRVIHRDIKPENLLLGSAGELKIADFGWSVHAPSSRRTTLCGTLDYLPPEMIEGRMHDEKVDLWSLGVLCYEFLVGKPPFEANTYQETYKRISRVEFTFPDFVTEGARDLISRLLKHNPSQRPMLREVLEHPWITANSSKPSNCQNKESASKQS
FLT3, sequence (P36888 27-993): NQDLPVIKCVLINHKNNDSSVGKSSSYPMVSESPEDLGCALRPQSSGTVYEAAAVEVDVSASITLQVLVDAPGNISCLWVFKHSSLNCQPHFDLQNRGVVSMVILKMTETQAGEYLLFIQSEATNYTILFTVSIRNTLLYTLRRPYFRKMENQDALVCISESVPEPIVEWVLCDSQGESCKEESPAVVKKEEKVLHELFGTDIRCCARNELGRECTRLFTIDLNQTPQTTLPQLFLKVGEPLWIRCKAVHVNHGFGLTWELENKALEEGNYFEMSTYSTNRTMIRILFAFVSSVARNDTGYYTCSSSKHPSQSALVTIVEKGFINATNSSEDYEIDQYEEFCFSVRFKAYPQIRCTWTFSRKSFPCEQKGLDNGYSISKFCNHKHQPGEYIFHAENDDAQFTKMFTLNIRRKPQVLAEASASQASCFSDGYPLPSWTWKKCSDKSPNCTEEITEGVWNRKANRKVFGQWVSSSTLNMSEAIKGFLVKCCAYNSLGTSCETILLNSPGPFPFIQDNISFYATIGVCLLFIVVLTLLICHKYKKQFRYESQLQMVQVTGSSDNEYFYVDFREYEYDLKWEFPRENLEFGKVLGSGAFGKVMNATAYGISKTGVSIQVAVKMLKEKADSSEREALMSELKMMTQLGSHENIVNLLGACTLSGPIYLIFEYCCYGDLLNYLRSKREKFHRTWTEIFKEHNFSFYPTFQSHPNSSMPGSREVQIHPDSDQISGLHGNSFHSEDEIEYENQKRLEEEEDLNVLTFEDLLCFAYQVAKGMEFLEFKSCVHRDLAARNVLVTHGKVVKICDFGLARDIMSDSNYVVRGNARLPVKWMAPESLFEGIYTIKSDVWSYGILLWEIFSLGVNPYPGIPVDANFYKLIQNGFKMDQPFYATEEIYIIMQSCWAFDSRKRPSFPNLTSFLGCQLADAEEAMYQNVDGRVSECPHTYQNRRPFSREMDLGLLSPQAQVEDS

| inhibition at 1 µM (Aurora A) [%] | IC50 (Aurora B; read-out: Aurora B IC50 Ranges) [nM] | inhibition at 10 µM (FLT3) [%] | inhibition at 10 µM (KDR kinase (VEGFR2)) [%] | IC50 (human PLK4; read-out: PLK4 IC50 Ranges) [nM] | SMILES | IC50 (human PLK4) [nM] | IC50 (Aurora B) [nM] |
| --- | --- | --- | --- | --- | --- | --- | --- |
| < 50 | < 100 |  |  |  | COc1ccc2c(c1)[C@]1(C[C@H]1c1ccc3c(-c4ccc(N5CCN(C)CC5)cc4)n[nH]c3c1)C(=O)N2 (relative stereo) [Example A38, (1R*,2S*)-5′-Methoxy-2-(3-(4-(4-methylpiperazin-1-yl)phenyl)-1H-indazol-6-yl)spiro[cyclopropane-1,3′-indolin]-2′-one] | < 100 |  |
|  |  | 102 | 58 |  | CN(C)Cc1ccc(/C=C/c2n[nH]c3cc([C@H]4C[C@@]45C(=O)Nc4ccccc45)ccc23)cc1 (relative stereo) [Example A26, (1R*,2R*)-(E)-2-(3-(4-((dimethylamino)methyl)styryl)-1H-indazol-6-yl)spiro[cyclopropane-1,3′-indolin]-2′-one 2,2,2-trifluoroacetate] |  |  |
| > 50 | 100 to 1000 |  |  | < 100 | CN1CCN(c2ccc(-c3n[nH]c4cc([C@@H]5C[C@@]56C(=O)Nc5ccc(N)cc56)ccc34)cc2)CC1 (relative stereo) [Example A86, (1R*,2S*)-5′-amino-2-(3-(4-(4-methylpiperazin-1-yl)phenyl)-1H-indazol-6-yl)spiro[cyclopropane-1,3′-indolin]-2′-one] |  |  |
| > 50 | < 100 |  |  | < 100 | CN1CCN(c2ccc(-c3n[nH]c4cc([C@@H]5C[C@@]56C(=O)N(C)c5ccccc56)ccc34)cn2)CC1 (relative stereo) [Example A93, (1R*,2S*)-1′-methyl-2-(3-(6-(4-methylpiperazin-1-yl)pyridin-3-yl)-1H-indazol-6-yl)spiro[cyclopropane-1,3′-indolin]-2′-one bis(2,2,2-trifluoroacetate)] |  |  |
| < 50 | < 100 |  |  | < 100 | COc1ccc2c(c1)[C@]1(C[C@H]1c1ccc3c(-c4cccc(CO)c4)n[nH]c3c1)C(=O)N2 (relative stereo) [Example A43, (1R*,2S*)-2-(3-(3-(hydroxymethyl)phenyl)-1H-indazol-6-yl)-5′-methoxy spiro[cyclopropane-1,3′-indolin]-2′-one 2,2,2-trifluoroacetate] |  |  |
| < 50 | < 100 |  |  | < 100 | COc1ccc2c(c1)[C@]1(C[C@H]1c1ccc3c(-c4ccc(N5CCN(C)CC5)cc4)n[nH]c3c1)C(=O)N2C (relative stereo) [Example A100, (1R*,2S*)-5′-methoxy-1′-methyl-2-(3-(4-(4-methylpiperazin-1-yl)phenyl)-1H-indazol-6-yl)spiro[cyclopropane-1,3′-indolin]-2′-one 2,2,2-trifluoroacetate] |  |  |
| > 50 | < 100 |  |  | < 100 | CN(C)Cc1cccc(/C=C/c2n[nH]c3cc([C@@H]4C[C@@]45C(=O)N(CC(N)=O)c4ccccc45)ccc23)c1 (relative stereo) [Example A164, 2-((1R*,2S*)-(E)-2-(3-(3-((dimethylamino)methyl)styryl)-1H-indazol-6-yl)-2′-oxospiro[cyclopropane-1,3′-indoline]-1′-yl)acetamide 2,2,2-trifluoroacetate] |  |  |
| < 50 | < 100 |  |  | < 100 | COc1ccc2c(c1)[C@]1(C[C@H]1c1ccc3c(-c4ccnc(N5CCN(C)CC5)c4)n[nH]c3c1)C(=O)N2 (relative stereo) [Example A37, (1R*,2S*)-5′-Methoxy-2-(3-(2-(4-methylpiperazin-1-yl)pyridin-4-yl)-1H-indazol-6-yl)spiro[cyclopropane-1,3′-indolin]-2′-one] |  |  |
| > 50 | < 100 |  |  | < 100 | Cc1cc(/C=C/c2n[nH]c3cc([C@@H]4C[C@@]45C(=O)Nc4ccccc45)ccc23)ccn1 (relative stereo) [Example A161, (1R*,2S*)-2-(3-((E)-2-(2-methylpyridin-4-yl)vinyl)-1H-indazol-6-yl)spiro[cyclopropane-1,3′-indolin]-2′-one] |  |  |
| < 50 | < 100 |  |  | < 100 | COc1ccc2c(c1)[C@]1(C[C@H]1c1ccc3c(-c4ccc(N5CCN(C)CC5)nc4)n[nH]c3c1)C(=O)N2C (relative stereo) [Example A104, (1R*,2S*)-5′-methoxy-1′-methyl-2-(3-(6-(4-methylpiperazin-1-yl)pyridin-3-yl)-1H-indazol-6-yl)spiro[cyclopropane-1,3′-indolin]-2′-one bis(2,2,2-trifluoroacetate)] |  |  |

The remaining lines, values behind:

| SMILES | inhibition at 1 µM (Aurora A) [%] | IC50 (Aurora B; read-out: Aurora B IC50 Ranges) [nM] | inhibition at 10 µM (FLT3) [%] | inhibition at 10 µM (KDR kinase (VEGFR2)) [%] | IC50 (human PLK4; read-out: PLK4 IC50 Ranges) [nM] | IC50 (human PLK4) [nM] | IC50 (Aurora B) [nM] |
| --- | --- | --- | --- | --- | --- | --- | --- |
| COc1ccc2c(c1)[C@]1(C[C@H]1c1ccc3c(-c4ccc(N5CCNCC5)nc4)n[nH]c3c1)C(=O)N2 (relative stereo) [Example A21, 4-(5-(6-((1R*,2S*)-5′-Methoxy-2′-oxospiro[cyclopropane-1,3′-indoline]-2-yl)-1H-indazol-3-yl)pyridinium-2-yl)piperazine bis(2,2,2-trifluoroacetate)] | < 50 | < 100 |  |  | < 100 |  |  |
| CCN1CCN(c2ccc(-c3n[nH]c4cc([C@@H]5C[C@@]56C(=O)Nc5ccc(OC)cc56)ccc34)cc2)CC1 (relative stereo) [Example A98, (1R*,2S*)-2-(3-(4-(4-ethylpiperazin-1-yl)phenyl)-1H-indazol-6-yl)-5′-methoxyspiro[cyclopropane-1,3′-indolin]-2′-one 2,2,2-trifluoroacetate] | < 50 | < 100 |  |  |  | < 100 |  |
| CN1C(=O)[C@@]2(C[C@H]2c2ccc3c(/C=C/c4ccc(CN5CCCCC5)cc4)n[nH]c3c2)c2ccccc21 (relative stereo) [Example A95, (1R*,2S*)-(E)-1′-methyl-2-(3-(4-(piperidin-1-ylmethyl)styryl)-1H-indazol-6-yl)spiro[cyclopropane-1,3′-indolin]-2′-one 2,2,2-trifluoroacetate] |  | < 100 |  |  | < 100 |  |  |
| COc1ccc2c(c1)[C@]1(C[C@H]1c1ccc3c(-c4ccc(OCCN(C)C)cc4)n[nH]c3c1)C(=O)N2 (relative stereo) [Example A103, (1R*,2S*)-2-(3-(4-(2-(dimethylamino)ethoxy)phenyl)-1H-indazol-6-yl)-5′-methoxyspiro[cyclopropane-1,3′-indolin]-2′-one 2,2,2-trifluoroacetate] | < 50 | < 100 |  |  | < 100 |  |  |
| CCc1ccc2c(c1)[C@]1(C[C@H]1c1ccc3c(-c4ccc(N5CCN(C)CC5)cc4)n[nH]c3c1)C(=O)N2 (relative stereo) [Example A142, (1R*,2S*)-5′-ethyl-2-(3-(4-(4-methylpiperazin-1-yl)phenyl)-1H-indazol-6-yl)spiro[cyclopropane-1,3′-indolin]-2′-one 2,2,2-trifluoroacetate] |  | < 100 |  |  | < 100 |  |  |
| CN1C(=O)[C@@]2(C[C@H]2c2ccc3c(/C=C/c4ccc(N5CCNCC5)cc4)n[nH]c3c2)c2ccccc21 (relative stereo) [Example A89, (1R*,2S*)-(E)-1′-methyl-2-(3-(4-(piperazin-1-yl)styryl)-1H-indazol-6-yl)spiro[cyclopropane-1,3′-indolin]-2′-one 2,2,2-trifluoroacetate] | > 50 |  |  |  |  | < 100 | < 100 |
| COc1ccc2c(c1)[C@]1(C[C@H]1c1ccc3c(/C=C/c4ccc(N5CCNCC5)nc4)n[nH]c3c1)C(=O)N2 (relative stereo) [Example A163, (1R*,2S*)-5′-methoxy-2-(3-((E)-2-(6-(piperazin-1-yl)pyridin-3-yl)vinyl)-1H-indazol-6-yl)spiro[cyclopropane-1,3′-indolin]-2′-one 2,2,2-trifluoroacetate] | > 50 | < 100 |  |  | < 100 |  |  |
| O=C1Nc2ccccc2[C@]12C[C@H]2c1ccc2c(/C=C/c3ccc(N4CCNCC4)cc3)n[nH]c2c1 (relative stereo) [Example A91, (1R*,2S*)-(E)-2-(3-(4-(piperazin-1-yl)styryl)-1H-indazol-6-yl)spiro[cyclopropane-1,3′-indolin]-2′-one 2,2,2-trifluoroacetate] | > 50 | < 100 |  |  |  | < 100 |  |
